# “Also recorded” adds a separate entry of the source.
# Columns and labels:
# [1] = Acute toxicity (LD50), intravenous, rats; design: species or system 6-week old CD rats; conditions: rat, in vivo
# Procedure: (§1) The acute toxicity (LD50) of intravenously administered tauroursodeoxycholic acid was evaluated in 6-week old male and female CD rats and 8 to 11-month old male and female beagle dogs. The LD50 was 600 to 800 mg/kg in male rats and 800 to 1000 mg/kg in female rats.
# [2] = tested on: patients with cholestasis; assay: Clinical results of tauroursodeoxycholic acid injection (patients with cholestasis / jaundice); format: in vivo, human (patients)
# Procedure: Since tylosis of the gallbladder walls was observed by abdominal ultrasonic imaging and there were severe icteric symptoms, this case was diagnosed as cholestasis due to drug-induced hepatopathy.
# At a stage when moderate jaundice still remained (total bilirubin: 6.9 mg/dl) and no improvement had been noted in subjective symptoms such as skin itching and epigastric discomfort, tauroursodeoxycholic acid was intravenously injected once a day at a dose of 100 mg for 14 days. As a result, the total bilirubin level, GOT and GPT were decreased to 2.1 mg/dl, 45 U/l and 36 U/l, respectively, and the icteric symptoms as well as the subjective symptoms such as skin itching and epigastric discomfort were disappeared.
# […] After the patient came back to Japan on April 5 and was hospitalized, tauroursodeoxycholic acid was intravenously administered once a day at a dose of 100 mg for 14 days.
# At a stage when moderate jaundice was observed (total bilirubin: 9.0 mg/dl, GOT: 838 U/l, GPT 451 U/l), tauroursodeoxycholic acid was administered once a day at a dose of 300 mg by intravenous drip infusion for 14 days.
# This patient was diagnosed to suffer from cholestasis due to acute viral hepatitis based on results of immuno-serological test including GOT of 11600 U/l, GPT of 6300 U/l and total bilirubin level of 7.7 mg/dl and HBV positive result of virological test as well as severe icteric symptoms.
# At a stage when jaundice was still severe (total bilirubin: 16.19 mg/dl), tauroursodeoxycholic acid was administered once a day at a dose of 300 mg by intravenous drip infusion for 14 days. As a result, the total bilirubin level, GOT and GPT were decreased to 4.4 mg/dl, 48 U/l and 36 U/l, respectively, icteric symptoms were improved from the day after one week of the administration and subjective symptoms such as skin itching and systemic malaise were disappeared by the 10th day of the administration.
# This patient began to feel general malaise in late June 1993 and, since jaundice appeared on Jun. 28, they visited a neighboring clinic and received treatment. In spite of that, jaundice was not improved and they referred to our medical institution on July 5. Based on the results of inspections, the patient was diagnosed to suffer cholestasis due to acute viral hepatitis (type B).
# Tauroursodeoxycholic acid was administered by intravenous injection once a day at a dose of 600 mg for 18 days from July 8.
# This patient noticed jaundice in the middle of May 1993 and consulted a doctor. Their symptom was diagnosed as obstructive jaundice based on images of enlargement of the bilateral intrahepatic bile ducts and 3-4 cm long irregular stenosis in the choledoch observed in endoscopic retrograde cholangiopancreatography (ERCP) and underwent endoscopic […] bile duct drainage (ENBD) on May 31.
# Because icteric symptoms were not improved, tauroursodeoxycholic acid was intravenously injected once a day at a dose of 100 mg for 22 days.
# This patient was diagnosed to suffer from pancreatic cancer by ERCP. […] Concurrently, icteric symptoms and skin itching were continued. Therefore, tauroursodeoxycholic acid was intravenously injected once a day at a dose of 600 mg for 38 days. As a result, the total bilirubin level was decreased to 3.3 mg/dl, the bile flow was increased from the preadministration level of 230 ml/day to 440 ml/day, and icteric symptoms and skin itching were improved.
# [3] = Acute toxicity (LD50), intravenous, beagle dogs; design: species or system 8 to 11-month old beagle dogs; conditions: dog, in vivo, both sexes
# Procedure: as §1
# Solubility in water = format: physicochemical; conditions: in words
# [4] = tested on: hepatic injury induced by α-naphthylisothiocyanate (ANIT); assay: Protective effect against hepatic injury in mice (ANIT); format: in vivo, male ICR mice
# Procedure: Tauroursodeoxycholic acid was administered to male ICR mice via their caudal veins at a dose within a range of 100 to 1200μ mole/kg two hours before and two hours after an administration of α-naphthylisothiocyanate (ANIT) as a single dose of 80 mg/kg. Serum bilirubin concentration, total bile acid concentration and LDH activity were measured two days after the ANIT administration.
# [5] = tested on: bile flow reduction induced by estradiol-17β-D-glucuronide (E-17-G); assay: Ameliorative effect against cholestasis in rats (E-17-G-induced reduction of bile flow); format: in vivo, female SD rats
# Procedure: An extra external-biliary fistula was developed in female SD rats under anesthesia and, after bile collection for 30 minutes, estradiol-17β-D-glucuronide (E-17-G) was administered via their femoral veins as a single dose of 10 μ mole/kg. Immediately after the administration, tauroursodeoxycholic acid was continuously administered over two hours via the femoral veins at a rate of 0.6 μ mole/min/100 g body weight, and the bile flow was measured serially.
# intrahepatic cholestasis = conditions: cited from earlier work
# [6] = in words, background; cited from earlier work
# [7] = Example 2 patient, 100 mg i.v. once a day for 14 days, from the day after three days of the administration
# [8] = Example 5 patient, 600 mg i.v. once a day for 18 days
# [9] = Example 6 patient, obstructive jaundice, ENBD, 100 mg i.v. once a day for 22 days, after one week
# [10] = 100 to 1200 μ mole/kg via caudal veins two hours before and two hours after ANIT 80 mg/kg, two days after ANIT
smiles,measurement,setting,value
C[C@H](CCC(=O)NCCS(=O)(=O)O)[C@H]1CC[C@H]2[C@@H]3[C@@H](O)C[C@@H]4C[C@H](O)CC[C@]4(C)[C@H]3CC[C@]12C [tauroursodeoxycholic acid],LD50,[1]; female rats,800 to 1000 mg/kg
same,LD50,[1]; male rats,600 to 800 mg/kg
same,total bilirubin level,"[2]; Example 1 patient, drug-induced hepatopathy, 100 mg i.v. once a day for 14 days, before: 6.9 mg/dl",2.1 mg/dL
same,GOT,"[2]; Example 1 patient, drug-induced hepatopathy, 100 mg i.v. once a day for 14 days, peak before: 548 U/l",45 U/l
same,GPT,"[2]; Example 1 patient, drug-induced hepatopathy, 100 mg i.v. once a day for 14 days, peak before: 664 U/l",36 U/l
same,icteric symptoms and subjective symptoms such as skin itching and epigastric discomfort,"[2]; Example 1 patient, 100 mg i.v. once a day for 14 days",disappeared
same,total bile acid level,"[2]; Example 2 patient, acute viral hepatitis, 100 mg i.v. once a day for 14 days, before: 21 μmole/l",12 µmol/L
same,total bilirubin level,"[2]; Example 2 patient, acute viral hepatitis, 100 mg i.v. once a day for 14 days, before: 31.4 mg/dl",13.7 mg/dL
same,icteric symptoms,[2]; [7],improvement of icteric symptoms
same,subjective symptoms such as skin itching and anorexia,[2]; [7],disappeared
same,total bilirubin level,"[2]; Example 3 patient, drug-induced hepatopathy, 300 mg once a day i.v. drip infusion for 14 days, before: 9.0 mg/dl",2.8 mg/dL
same,icteric symptoms due to cholestasis,"[2]; Example 3 patient, 300 mg once a day i.v. drip infusion for 14 days",improvement in icteric symptoms
same,GPT,"[2]; Example 3 patient, 300 mg once a day i.v. drip infusion for 14 days, before: 451 U/l",145 U/l
same,GOT,"[2]; Example 3 patient, 300 mg once a day i.v. drip infusion for 14 days, before: 838 U/l",171 U/l
same,"total bilirubin level, GOT and GPT after completion of administration","[2]; Example 3 patient, two weeks after the completion of 300 mg once a day i.v. drip infusion for 14 days",no increase was observed
same,total bilirubin level,"[2]; Example 4 patient, acute viral hepatitis (HBV positive), 300 mg once a day i.v. drip infusion for 14 days, before: 16.19 mg/dl",4.4 mg/dL
same,GPT,"[2]; Example 4 patient, 300 mg once a day i.v. drip infusion for 14 days, at diagnosis: 6300 U/l",36 U/l
same,GOT,"[2]; Example 4 patient, 300 mg once a day i.v. drip infusion for 14 days, at diagnosis: 11600 U/l",48 U/l
same,subjective symptoms such as skin itching and systemic malaise,"[2]; Example 4 patient, 300 mg once a day i.v. drip infusion, by the 10th day of the administration",disappeared
same,icteric symptoms,"[2]; Example 4 patient, 300 mg once a day i.v. drip infusion, from the day after one week of the administration",improved
same,total bilirubin level,"[2]; Example 5 patient, acute viral hepatitis (type B), 600 mg i.v. once a day, after 4 days",reduced by half
same,total bilirubin level,"[2]; Example 5 patient, acute viral hepatitis (type B), 600 mg i.v. once a day, after one week",almost within the normal range
same,icteric symptoms and general malaise,[2]; [8],disappeared
same,other parameters related to the liver function,[2]; [8],improved
same,jaundice and skin itching,"[2]; Example 6 patient, obstructive jaundice, ENBD, 100 mg i.v. once a day for 22 days",improvement of jaundice and skin itching
same,bile flow,[2]; [9],apparent increase of bile flow
same,total bilirubin level,[2]; [9],decrease of the total bilirubin level
same,icteric symptoms and skin itching,"[2]; Example 7 patient, pancreatic cancer, PTCD, 600 mg i.v. once a day for 38 days",improved
same,total bilirubin level,"[2]; Example 7 patient, pancreatic cancer, PTCD, 600 mg i.v. once a day for 38 days, before: around 15 mg/dl",3.3 mg/dL
same,bile flow,"[2]; Example 7 patient, pancreatic cancer, PTCD, 600 mg i.v. once a day for 38 days, preadministration 230 ml/day",440 mL/day
same,ameliorative effect against cholestasis,"[2]; general finding, patients with liver diseases",ameliorative effect against cholestasis
same,LD50,[3],300 to 600 mg/kg
same,solubility in water,Solubility in water,better solubility in water as compared with ursodeoxycholic acid; also recorded: high solubility in water; also recorded: excellent solubility in water
same,increase of LDH activity induced by ANIT,[4]; [10],inhibited
same,increase of serum bilirubin concentration induced by ANIT,[4]; [10],inhibited
same,increase of total bile acid concentration induced by ANIT,[4]; [10],inhibited
same,protective effect of hepatocyte,[4]; general conclusion,protective effect of hepatocyte
same,infusion rate at or above which the reduction of the bile flow induced by E-17-G was inhibited,"[5]; female SD rats, E-17-G 10 μ mole/kg i.v., continuous infusion over two hours via femoral veins",≥ 0.3 μ mole/min/100 g body weight
same,inhibition of the reduction of bile flow compared with free ursodeoxycholic acid,"[5]; female SD rats, E-17-G 10 μ mole/kg i.v., comparator free ursodeoxycholic acid",more marked than that of free ursodeoxycholic acid
same,cholagogue effect,[5]; general conclusion,exerts cholagogue effect
CCC1(c2ccccc2)C(=O)NC(=O)NC1=O [phenobarbital],efficacy in the treatment of intrahepatic cholestasis,intrahepatic cholestasis; steroid and phenobarbital preparations currently used,"a certain level of, but often insufficient, efficacy"
C[C@H](CCC(=O)O)[C@H]1CC[C@H]2[C@@H]3[C@@H](O)C[C@@H]4C[C@H](O)CC[C@]4(C)[C@H]3CC[C@]12C [ursodeoxycholic acid],efficacy against intrahepatic cholestasis,"intrahepatic cholestasis; ursodeoxycholic acid preparations, recently reported in Japan and other countries",very high efficacy
same,solubility,[6],very low

# From patent US5863550A, “Cholestasis ameliorant” (Tokyo Tanabe Company Limited, priority 1993, dated 1999)
